Laboratory results published in patent publication EP4610269A1, “UROKINASE PLASMINOGEN ACTIVATOR SURFACE RECEPTOR (UPAR) LIGANDS FOR DIAGNOSTIC OR THERAPEUTIC USE” (3B Pharmaceuticals GmbH, priority 2024, dated 2025).
Read-outs that look alike come from different tables or passages of the source. *1 amine or outer side, *2 acyl side, *3 side chain or, on linkers, in order; H or OH if unused. Where a SMILES comes first, the peptide text is derived from it. Bridges are numbered along the chain shown (N, C = ends). [ ]: non-standard residue; d: D form. The star is where a group is joined. DOTA = O=C(O)CN1CCN(CC(=O)O)CCN(CC(=O)*)CCN(CC(=O)O)CC1; Oic = O=C(O)[C@@H]1C[C@@H]2CCCC[C@@H]2N1; Pro(4S-NH2) = N[C@@H]1CN[C@H](C(=O)O)C1; 2Nal = N[C@@H](Cc1ccc2ccccc2c1)C(=O)O; Hyp = O=C(O)[C@@H]1C[C@@H](O)CN1; 4Pal = N[C@@H](Cc1ccncc1)C(=O)O; Pentanoyl(4-Me) = CC(C)CCC(=O)*; Cha = N[C@@H](CC1CCCCC1)C(=O)O; Cit = NC(=O)NCCC[C@H](N)C(=O)O; Nle = CCCC[C@H](N)C(=O)O; Nva = CCC[C@H](N)C(=O)O; Abu = CC[C@H](N)C(=O)O; Pentanoyl = CCCCC(=O)*; Aib = CC(C)(N)C(=O)O; CO = O=C([*:1])[*:2]; NHBu = CCCCN*

How the values were obtained:
[1] = molecular target: T1, uPAR-expressing HEC-265 human endometrial adenocarcinoma cells (Homo sapiens, UniProt Q03405); assay: Competitive FACS binding assay; details: pIC50 category of FACS binding
T1 construct: Cell surface uPAR-expressing HEC-265 human endometrial adenocarcinoma cells; host or cells: HEC-265
How it was run: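 Competitive displacement of a 10 nM biotinylated peptide from HEC-265 cells (1 h, 4 °C, PBS/1% BSA), detected via APC-streptavidin by flow cytometry. pIC50 from four-parameter logistic fit of median fluorescence versus concentration.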

human uPAR (uPAR-Fc) = molecular target: T2, human uPAR (uPAR-Fc) (Homo sapiens, UniProt Q03405); assay: Surface plasmon resonance (SPR) assay, single cycle kinetics; format: binding; details: pKD category for uPAR SPR activity assay, uPAR-Fc on Protein A-Chip, 25°C; for Kd: read-out: pKD CAT (converted)
T2 construct: comprising amino acids Leu23-Arg303 according to UniProt entry Q03405.1; purchased R&D Systems 10378-UK-100
How it was run: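 uPAR-Fc (Leu23-Arg303 extracellular domains, human IgG1 Fc) captured on Protein A chip to ~2000 RU; single-cycle kinetics at 25°C in HEPES running buffer pH 7.4 with 0.1% DMSO. KD from double-referenced sensorgrams fitted to 1:1 Langmuir model, reported as pKD.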

T1 sequence (Q03405 23-335): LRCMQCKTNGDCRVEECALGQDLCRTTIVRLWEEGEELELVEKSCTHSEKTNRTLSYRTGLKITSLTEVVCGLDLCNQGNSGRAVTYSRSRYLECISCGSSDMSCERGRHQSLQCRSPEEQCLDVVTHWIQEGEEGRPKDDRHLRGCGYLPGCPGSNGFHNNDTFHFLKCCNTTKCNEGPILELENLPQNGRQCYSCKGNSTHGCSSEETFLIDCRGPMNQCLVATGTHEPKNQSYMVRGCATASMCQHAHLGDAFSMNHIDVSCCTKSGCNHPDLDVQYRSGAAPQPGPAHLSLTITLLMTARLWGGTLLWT
T2 sequence (Q03405 23-303): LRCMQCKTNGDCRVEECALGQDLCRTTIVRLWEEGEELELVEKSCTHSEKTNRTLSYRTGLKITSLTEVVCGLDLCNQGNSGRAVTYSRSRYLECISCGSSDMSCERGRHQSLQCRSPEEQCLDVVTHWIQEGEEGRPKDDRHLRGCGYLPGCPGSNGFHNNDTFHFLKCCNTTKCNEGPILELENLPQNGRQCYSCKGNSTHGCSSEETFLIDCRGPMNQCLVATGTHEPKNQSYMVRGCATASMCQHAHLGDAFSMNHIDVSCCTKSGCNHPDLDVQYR

| Molecule | IC50 [1] | Kd (human uPAR (uPAR-Fc)) | pIC50 CAT [1] | pKD CAT (human uPAR (uPAR-Fc); single cycle kinetics) | Kd (human uPAR (uPAR-Fc); single cycle kinetics) |
| --- | --- | --- | --- | --- | --- |
| CCCCC(=O)N[C@H]1CSSC[C@@H](C(N)=O)NC(=O)[C@H](CCC)NC(=O)[C@H]([C@@H](C)CC)NC(=O)[C@@H]2C[C@@H]3CCCC[C@@H]3N2C(=O)[C@@H]2CCCN2C(=O)[C@H](Cc2ccccc2)NC(=O)[C@H](Cc2ccc(O)cc2)NC(=O)[C@H](CCC(N)=O)NC(=O)[C@H](CCCNC(=N)N)NC1=O [UPAR-190, Pent-[Cys-Arg-Gln-Tyr-Phe-Pro-Oic-Ile-Nva-Cys]-NH2] (Pentanoyl-CRQYFP[Oic]I[Nva]C-NH2; disulfide 1-10) | 12.6 to 31.6 nM | < 1.58 nM | – | – | – |
| CCCCC(=O)N[C@H]1CSSC[C@@H](C(N)=O)NC(=O)[C@H](CCC)NC(=O)[C@H]([C@@H](C)CC)NC(=O)[C@@H]2C[C@@H](O)CN2C(=O)[C@H](CC2CCCCC2)NC(=O)[C@H](Cc2ccccc2)NC(=O)[C@H](Cc2ccc(O)cc2)NC(=O)[C@H](CCC(N)=O)NC(=O)[C@H](CCCNC(=N)N)NC1=O [UPAR-266, Pent-[Cys-Arg-Gln-Tyr-Phe-Cha-Hyp-Ile-Nva-Cys]-NH2] (Pentanoyl-CRQYF[Cha][Hyp]I[Nva]C-NH2; disulfide 1-10) | ≤ 10 nM | < 1.58 nM | – | – | – |
| CCCCNC(=O)N[C@H]1CSSC[C@@H](C(N)=O)NC(=O)[C@H](CC(C)C)NC(=O)[C@H]([C@@H](C)CC)NC(=O)[C@@H](C)NC(=O)[C@@H]2CCCN2C(=O)[C@H](Cc2ccccc2)NC(=O)[C@H](Cc2ccc(O)cc2)NC(=O)[C@H](CCC(N)=O)NC(=O)[C@H](CCCNC(N)=O)NC1=O [UPAR-286, nBuCAyl-[Cys-Cit-Gln-Tyr-Phe-Pro-ala-Ile-Leu-Cys]-NH2] ({NHBu-CO}-C[Cit]QYFP[dA]ILC-NH2; disulfide 1-10) | ≤ 10 nM | < 1.58 nM | – | – | – |
| Pent-[Cys-Cit-Lys(LuDOTA)-Nif-Phe-Pro-Hyp-Ile-Nva-Cys]-NH2 [UPAR-352] | – | – | A (pIC50 values ≥8.0) | A (pKD values ≥ 8.8) | – |
| CCCCC(=O)N[C@H]1CSSC[C@@H](C(N)=O)NC(=O)[C@H](CCC)NC(=O)[C@H]([C@@H](C)CC)NC(=O)[C@@H]2C[C@H](N)CN2C(=O)[C@@H]2CCCN2C(=O)[C@H](Cc2ccccc2)NC(=O)[C@H](Cc2ccc(O)cc2)NC(=O)[C@H](CCCCNC(=O)CN2CCN(CC(=O)O)CCN(CC(=O)O)CCN(CC(=O)O)CC2)NC(=O)[C@H](CCCNC(N)=O)NC1=O [UPAR-325, Pent-[Cys-Cit-Lys(DOTA)-Tyr-Phe-Pro-4Ap-Ile-Nva-Cys]-NH2] (Pentanoyl-C[Cit]K(DOTA)YFP[Pro(4S-NH2)]I[Nva]C-NH2; disulfide 1-10) | ≤ 10 nM | < 1.58 nM | – | – | – |
| CCCC[C@@H]1NC(=O)[C@H](CCCNC(=N)N)NC(=O)[C@@H](NC(=O)[C@H](CC(C)C)NC(=O)[C@H](CC(=O)O)NC(C)=O)CSSC[C@@H](C(N)=O)NC(=O)[C@H](CC(C)C)NC(=O)[C@H]([C@@H](C)CC)NC(=O)C(C)(C)NC(=O)[C@@H]2CCCN2C(=O)[C@H](Cc2ccccc2)NC(=O)[C@H](Cc2ccc(O)cc2)NC1=O [UPAR-440, Ac-Asp-Leu-[Cys-Arg-Nle-Tyr-Phe-Pro-Aib-Ile-Leu-Cys]-NH2] (Ac-DLCR[Nle]YFP[Aib]ILC-NH2; disulfide 3-12) | ≤ 10 nM | – | – | – | < 1.58 nM |
| CC[C@@H]1NC(=O)[C@H]([C@@H](C)CC)NC(=O)[C@@H](C)NC(=O)[C@@H]2CCCN2C(=O)[C@H](Cc2ccccc2)NC(=O)[C@H](Cc2ccc(O)cc2)NC(=O)[C@H](CCC(N)=O)NC(=O)[C@H](CCCNC(N)=O)NC(=O)[C@@H](NC(=O)CCC(C)C)CSSC[C@@H](C(N)=O)NC1=O [UPAR-451, iHex-[Cys-Cit-Gln-Tyr-Phe-Pro-ala-Ile-Abu-Cys]-NH2] ({Pentanoyl(4-Me)}-C[Cit]QYFP[dA]I[Abu]C-NH2; disulfide 1-10) | ≤ 10 nM | – | – | – | 1.58 to 10 nM |
| CCCCC(=O)N[C@H]1CSSC[C@@H](C(N)=O)NC(=O)[C@H](CCC)NC(=O)[C@H]([C@@H](C)CC)NC(=O)[C@@H]2C[C@@H](O)CN2C(=O)[C@@H]2CCCN2C(=O)[C@H](Cc2ccccc2)NC(=O)[C@H](Cc2ccc3ccccc3c2)NC(=O)[C@H](CCC(N)=O)NC(=O)[C@H](CCCNC(=N)N)NC1=O [UPAR-259, Pent-[Cys-Arg-Gln-2Ni-Phe-Pro-Hyp-Ile-Nva-Cys]-NH2] (Pentanoyl-CRQ[2Nal]FP[Hyp]I[Nva]C-NH2; disulfide 1-10) | ≤ 10 nM | < 1.58 nM | – | – | – |
| CCCCC(=O)N[C@H]1CSSC[C@@H](C(N)=O)NC(=O)[C@H](CCC)NC(=O)[C@H]([C@@H](C)CC)NC(=O)[C@@H]2C[C@@H](O)CN2C(=O)[C@@H]2CCCN2C(=O)[C@H](Cc2ccncc2)NC(=O)[C@H](Cc2ccc(O)cc2)NC(=O)[C@H](CCCCNC(=O)CN2CCN(CC(=O)O)CCN(CC(=O)O)CCN(CC(=O)O)CC2)NC(=O)[C@H](CCCNC(N)=O)NC1=O [UPAR-222, Pent-[Cys-Cit-Lys(DOTA)-Tyr-Ppa-Pro-Hyp-Ile-Nva-Cys]-NH2] (Pentanoyl-C[Cit]K(DOTA)Y[4Pal]P[Hyp]I[Nva]C-NH2; disulfide 1-10) | ≤ 10 nM | 1.58 to 10 nM | – | – | – |
